IC50 data for 26 compounds are collected here from US10660877B2 (BRISTOL-MYERS SQUIBB COMPANY, priority 2016, dated 2020).

Where only a bound is given, the exact number is not on record here.

The target in assay [1] is human TLR9 (Homo sapiens (Human), UniProt Q9NR96). Nature of the assay: TLR9 inhibition reporter assay (HEK-Blue cells, SEAP reporter, ODN2006 stimulation).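 Note: compounds tested over 0.05 nM to 50 µM, 22 h incubation, inhibition taken as SEAP signal drop from agonist plus DMSO wells toward a known inhibitor control.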 Particulars: read-out: TLR9 IC50, HEK-Blue cells overexpressing human TLR9, ODN2006 5 nM. Background: Reporter assays use an easily measured gene product as a stand-in for the process of interest.
Assay [2] has as its target human TLR8 (Homo sapiens (Human), UniProt Q9NR97). Nature of the assay: TLR8 inhibition reporter assay (HEK-Blue cells, SEAP reporter, R848 stimulation).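 Note: compounds tested from 0.05 nM to 50 µM, 22 h at 37 °C, SEAP measured with HEK-Blue Detection, inhibition relative to agonist plus DMSO versus a known inhibitor.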 Particulars: read-out: TLR8 IC50, HEK-Blue cells overexpressing human TLR8, R848 15.9 μM.
Assay [3] has as its target human TLR7 (Homo sapiens (Human), UniProt Q9NYK1). Nature of the assay: TLR7 inhibition reporter assay (HEK-Blue cells, SEAP reporter, gardiquimod stimulation). It is filed as cell-based. Particulars: HEK-Blue cells overexpressing human TLR7, gardiquimod 7.5 μM.

human TLR9, sequence (Q9NR96 26-1032): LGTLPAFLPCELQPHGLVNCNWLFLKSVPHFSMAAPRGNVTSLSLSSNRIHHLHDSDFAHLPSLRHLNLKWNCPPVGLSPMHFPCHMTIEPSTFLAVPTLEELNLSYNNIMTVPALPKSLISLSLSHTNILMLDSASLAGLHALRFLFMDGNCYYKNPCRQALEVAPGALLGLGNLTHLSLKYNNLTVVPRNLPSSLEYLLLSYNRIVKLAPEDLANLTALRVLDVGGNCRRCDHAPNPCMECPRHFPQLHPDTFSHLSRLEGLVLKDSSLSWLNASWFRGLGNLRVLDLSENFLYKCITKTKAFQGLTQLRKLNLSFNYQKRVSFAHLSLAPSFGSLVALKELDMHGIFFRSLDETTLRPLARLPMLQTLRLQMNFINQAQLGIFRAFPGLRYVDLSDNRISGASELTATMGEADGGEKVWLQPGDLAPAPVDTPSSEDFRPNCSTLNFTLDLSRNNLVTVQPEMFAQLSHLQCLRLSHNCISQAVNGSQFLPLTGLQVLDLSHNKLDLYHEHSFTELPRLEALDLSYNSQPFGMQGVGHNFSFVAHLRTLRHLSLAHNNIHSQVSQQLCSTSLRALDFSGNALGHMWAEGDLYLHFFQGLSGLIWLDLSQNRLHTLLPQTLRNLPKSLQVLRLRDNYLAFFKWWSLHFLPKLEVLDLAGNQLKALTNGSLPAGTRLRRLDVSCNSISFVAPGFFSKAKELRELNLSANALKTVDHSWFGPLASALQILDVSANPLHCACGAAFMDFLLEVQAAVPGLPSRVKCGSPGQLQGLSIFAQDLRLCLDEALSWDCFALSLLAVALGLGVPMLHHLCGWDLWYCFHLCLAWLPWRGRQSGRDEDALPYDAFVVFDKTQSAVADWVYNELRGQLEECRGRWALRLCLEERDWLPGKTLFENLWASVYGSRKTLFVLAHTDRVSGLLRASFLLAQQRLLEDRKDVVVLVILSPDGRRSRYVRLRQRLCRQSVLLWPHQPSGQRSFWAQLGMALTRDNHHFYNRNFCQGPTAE
human TLR8, sequence (Q9NR97 27-1041): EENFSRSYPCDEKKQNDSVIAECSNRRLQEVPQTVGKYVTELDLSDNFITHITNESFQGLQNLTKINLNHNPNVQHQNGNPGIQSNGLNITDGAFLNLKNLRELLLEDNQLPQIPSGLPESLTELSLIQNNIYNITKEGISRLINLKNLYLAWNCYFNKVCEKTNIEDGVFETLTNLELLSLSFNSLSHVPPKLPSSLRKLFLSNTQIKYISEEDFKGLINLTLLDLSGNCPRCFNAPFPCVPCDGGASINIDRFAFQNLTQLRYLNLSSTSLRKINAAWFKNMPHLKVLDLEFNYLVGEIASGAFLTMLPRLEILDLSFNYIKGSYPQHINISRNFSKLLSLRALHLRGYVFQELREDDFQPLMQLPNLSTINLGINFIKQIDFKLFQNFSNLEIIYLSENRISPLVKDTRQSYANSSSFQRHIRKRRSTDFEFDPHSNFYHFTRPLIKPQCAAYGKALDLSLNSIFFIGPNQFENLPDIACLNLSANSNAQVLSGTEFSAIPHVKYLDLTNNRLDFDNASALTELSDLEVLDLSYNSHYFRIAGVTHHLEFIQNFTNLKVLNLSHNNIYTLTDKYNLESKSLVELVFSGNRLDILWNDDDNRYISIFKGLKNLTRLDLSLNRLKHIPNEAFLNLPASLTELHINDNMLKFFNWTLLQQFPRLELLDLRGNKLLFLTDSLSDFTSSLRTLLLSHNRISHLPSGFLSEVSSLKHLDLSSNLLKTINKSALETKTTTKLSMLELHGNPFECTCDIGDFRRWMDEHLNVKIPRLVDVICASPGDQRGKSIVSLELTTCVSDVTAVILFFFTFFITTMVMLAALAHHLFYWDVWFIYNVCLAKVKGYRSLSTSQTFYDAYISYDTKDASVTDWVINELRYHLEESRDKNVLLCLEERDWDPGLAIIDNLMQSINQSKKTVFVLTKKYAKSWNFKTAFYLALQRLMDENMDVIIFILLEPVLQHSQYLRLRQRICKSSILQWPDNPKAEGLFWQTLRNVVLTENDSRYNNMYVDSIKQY
human TLR7, sequence (Q9NYK1 27-1049): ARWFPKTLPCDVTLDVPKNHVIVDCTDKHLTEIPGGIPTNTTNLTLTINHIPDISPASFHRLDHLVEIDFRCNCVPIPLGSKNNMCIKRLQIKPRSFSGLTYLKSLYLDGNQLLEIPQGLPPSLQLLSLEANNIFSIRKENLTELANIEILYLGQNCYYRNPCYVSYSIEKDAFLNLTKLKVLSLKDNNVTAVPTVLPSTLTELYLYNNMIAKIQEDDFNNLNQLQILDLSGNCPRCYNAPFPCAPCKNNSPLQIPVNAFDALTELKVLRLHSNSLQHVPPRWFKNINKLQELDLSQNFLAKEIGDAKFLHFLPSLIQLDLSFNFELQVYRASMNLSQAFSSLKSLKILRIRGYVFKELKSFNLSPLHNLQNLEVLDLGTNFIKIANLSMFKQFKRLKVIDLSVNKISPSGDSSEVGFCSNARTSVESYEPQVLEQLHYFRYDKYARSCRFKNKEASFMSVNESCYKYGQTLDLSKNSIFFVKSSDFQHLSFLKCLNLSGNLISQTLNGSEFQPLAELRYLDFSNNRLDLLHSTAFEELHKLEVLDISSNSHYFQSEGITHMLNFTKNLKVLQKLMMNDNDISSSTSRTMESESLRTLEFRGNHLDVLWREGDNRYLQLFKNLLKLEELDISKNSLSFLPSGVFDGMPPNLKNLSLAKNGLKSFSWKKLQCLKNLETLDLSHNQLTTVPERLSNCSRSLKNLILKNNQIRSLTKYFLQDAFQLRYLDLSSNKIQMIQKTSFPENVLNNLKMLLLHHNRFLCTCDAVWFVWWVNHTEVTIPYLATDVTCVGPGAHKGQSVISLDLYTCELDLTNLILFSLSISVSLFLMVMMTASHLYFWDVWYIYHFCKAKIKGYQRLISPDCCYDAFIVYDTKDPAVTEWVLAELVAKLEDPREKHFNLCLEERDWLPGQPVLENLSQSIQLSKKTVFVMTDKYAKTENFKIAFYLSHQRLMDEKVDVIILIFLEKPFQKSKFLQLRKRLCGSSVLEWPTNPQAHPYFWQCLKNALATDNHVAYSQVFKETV

Usually IC50 stands for the point on the concentration scale where inhibition reaches its midpoint. In the case of `Cc1cc(-c2[nH]c3ccc(C4CCN(S(=O)(=O)c5ccc(Cl)cc5)CC4)cc3c2C(C)C)ccn1` [Example 542, 5-(1-((4-chlorophenyl)sulfonyl)piperidin-4-yl)-3-isopropyl-2-(2-methylpyridin-4-yl)-1H-indole], the IC50 in assay [1] was over 50 µM; in assay [2], 1.48 µM; in assay [3], 1.16 µM.
On to `Cc1cc(-c2[nH]c3ccc(C4CCN(S(=O)(=O)c5cccnc5)CC4)cc3c2C(C)C)ccn1` [Example 543, 3-isopropyl-2-(2-methylpyridin-4-yl)-5-(1-(pyridin-3-ylsulfonyl)piperidin-4-yl)-1H-indole], for which the IC50 worked out at 9.75 µM in assay [1], 0.206 µM in assay [2] and 0.119 µM in assay [3].
On to `Cc1cc(-c2[nH]c3ccc(C4CCN(S(=O)(=O)C(C)C)CC4)cc3c2C(C)C)ccn1` [Example 544, 3-isopropyl-5-(1-(isopropylsulfonyl)piperidin-4-yl)-2-(2-methylpyridin-4-yl)-1H-indole], for which the results for the IC50 in assay [1], in assay [2] and in assay [3] were 12.2 µM, 0.245 µM and 0.119 µM, respectively.
Taken in the same sequence, the figures for `CCCS(=O)(=O)N1CCC(c2ccc3[nH]c(-c4ccnc(C)c4)c(C(C)C)c3c2)CC1` [Example 545, 3-isopropyl-2-(2-methylpyridin-4-yl)-5-(1-(propylsulfonyl)piperidin-4-yl)-1H-indole] were over 50 µM, 0.266 µM and 0.102 µM.
Turning to `Cc1cc(-c2[nH]c3ccc(C4CCN(S(=O)(=O)CC(F)(F)F)CC4)cc3c2C(C)C)ccn1` [Example 546, 3-isopropyl-2-(2-methylpyridin-4-yl)-5-(1-((2,2,2-trifluoroethyl)sulfonyl)piperidin-4-yl)-1H-indole], the IC50 in assay [1] was over 50 µM; in assay [2] it was 0.82 µM; in assay [3], 0.164 µM.
Take `Cc1cc(-c2[nH]c3ccc(C4CCN(S(=O)(=O)c5ccccc5)CC4)cc3c2C(C)C)ccn1` [Example 547, 3-isopropyl-2-(2-methylpyridin-4-yl)-5-(1-(phenylsulfonyl)piperidin-4-yl)-1H-indole]: the IC50 was over 50 µM in assay [1], 1.04 µM in assay [2] and 0.333 µM in assay [3].
Taken in the same sequence, the figures for `Cc1cc(-c2[nH]c3ccc(C4CCN(S(=O)(=O)CC(C)C)CC4)cc3c2C(C)C)ccn1` [Example 548, 5-(1-(isobutylsulfonyl)piperidin-4-yl)-3-isopropyl-2-(2-methylpyridin-4-yl)-1H-indole] were over 50 µM, 0.7 µM and 0.336 µM.
On to `CCS(=O)(=O)N1CCC(c2ccc3[nH]c(-c4ccnc(C)c4)c(C(C)C)c3c2)CC1` [Example 549, 5-(1-(ethylsulfonyl)piperidin-4-yl)-3-isopropyl-2-(2-methylpyridin-4-yl)-1H-indole], for which the results for the 50% inhibitory concentration (IC50) in assay [1], in assay [2] and in assay [3] were over 50 µM, 0.164 µM and 0.0556 µM, respectively.
Taken in the same sequence, the figures for `Cc1cc(-c2[nH]c3ccc(C4CCN(S(C)(=O)=O)CC4)cc3c2C(C)C)ccn1` [Example 550, 3-isopropyl-2-(2-methylpyridin-4-yl)-5-(1-(methylsulfonyl)piperidin-4-yl)-1H-indole] were over 50 µM, 0.163 µM and 0.039 µM.
With `Cc1cc(-c2[nH]c3ccc(C4CCN(S(=O)(=O)c5ccc(F)cc5)CC4)cc3c2C(C)C)ccn1` [Example 551, 5-(1-((4-fluorophenyl)sulfonyl)piperidin-4-yl)-3-isopropyl-2-(2-methylpyridin-4-yl)-1H-indole], the concentration for half-maximal inhibition (IC50) was over 50 µM in assay [1], 1.03 µM in assay [2] and 0.486 µM in assay [3].
Regarding `CC(=O)Nc1ccc(S(=O)(=O)N2CCC(c3ccc4[nH]c(-c5ccnc(C)c5)c(C(C)C)c4c3)CC2)cc1` [Example 552, N-(4-((4-(3-isopropyl-2-(2-methylpyridin-4-yl)-1H-indol-5-yl)piperidin-1-yl)sulfonyl)phenyl)acetamide], the IC50 in assay [1] was over 50 µM; in assay [2], 0.111 µM; in assay [3], 0.13 µM.
Taken in the same sequence, the figures for `Cc1cc(-c2[nH]c3ccc(C4CCN(S(=O)(=O)c5cn(C)c(C)n5)CC4)cc3c2C(C)C)ccn1` [Example 553, 5-(1-((1,2-dimethyl-1H-imidazol-4-yl)sulfonyl)piperidin-4-yl)-3-isopropyl-2-(2-methylpyridin-4-yl)-1H-indole] were 31.6 µM, 0.0843 µM and 0.0742 µM.
Taken in the same sequence, the figures for `Cc1ccc(S(=O)(=O)N2CCC(c3ccc4[nH]c(-c5ccnc(C)c5)c(C(C)C)c4c3)CC2)cc1` [Example 554] were over 50 µM, 1.07 µM and 0.441 µM.
Taken in the same sequence, the figures for `Cc1cc(-c2[nH]c3ccc(C4CCN(S(=O)(=O)C5CC5)CC4)cc3c2C(C)C)ccn1` [Example 555, 5-(1-(cyclopropylsulfonyl)piperidin-4-yl)-3-isopropyl-2-(2-methylpyridin-4-yl)-1H-indole] were over 50 µM, 0.0921 µM and 0.0349 µM.
Turning to `Cc1cc(-c2[nH]c3ccc(C4CCN(S(=O)(=O)Cc5ccccc5)CC4)cc3c2C(C)C)ccn1` [Example 556, 5-(1-(benzylsulfonyl)piperidin-4-yl)-3-isopropyl-2-(2-methylpyridin-4-yl)-1H-indole], the figures for the IC50 in assay [1], in assay [2] and in assay [3] were over 50 µM, 0.731 µM and 0.22 µM, respectively.
For the compound `Cc1ccc(OC(=O)N2CCC(c3ccc4[nH]c(-c5ccnc(C)c5)c(C(C)C)c4c3)CC2)cc1` [Example 557, p-Tolyl 4-(3-isopropyl-2-(2-methylpyridin-4-yl)-1H-indol-5-yl)piperidine-1-carboxylate], the values for the IC50 in assay [1], in assay [2] and in assay [3] were 6.04 µM, 3.25 µM and 1.53 µM, respectively.
Taken in the same sequence, the figures for `Cc1cc(-c2[nH]c3ccc(C4CCN(C(=O)OCC(C)C)CC4)cc3c2C(C)C)ccn1` [Example 558, isobutyl 4-(3-isopropyl-2-(2-methylpyridin-4-yl)-1H-indol-5-yl)piperidine-1-carboxylate] were 15 µM, 1.84 µM and 3.4 µM.
Taken in the same sequence, the figures for `Cc1cc(-c2[nH]c3ccc(C4CCN(C(=O)OC(C)C)CC4)cc3c2C(C)C)ccn1` [Example 559, isopropyl 4-(3-isopropyl-2-(2-methylpyridin-4-yl)-1H-indol-5-yl)piperidine-1-carboxylate] were 13.5 µM, 0.878 µM and 0.5 µM.
`CCOC(=O)N1CCC(c2ccc3[nH]c(-c4ccnc(C)c4)c(C(C)C)c3c2)CC1` [Example 560, ethyl 4-(3-isopropyl-2-(2-methylpyridin-4-yl)-1H-indol-5-yl)piperidine-1-carboxylate]: the IC50 in assay [1] was found to be 10.4 µM; in assay [2], 0.607 µM; in assay [3] it was 0.247 µM.
Taken in the same sequence, the figures for `COCCOC(=O)N1CCC(c2ccc3[nH]c(-c4ccnc(C)c4)c(C(C)C)c3c2)CC1` [Example 561, 2-methoxyethyl 4-(3-isopropyl-2-(2-methylpyridin-4-yl)-1H-indol-5-yl)piperidine-1-carboxylate] were 43.9 µM, 0.363 µM and 0.202 µM.
`COC(=O)N1CCC(c2ccc3[nH]c(-c4ccnc(C)c4)c(C(C)C)c3c2)CC1` [Example 562, methyl 4-(3-isopropyl-2-(2-methylpyridin-4-yl)-1H-indol-5-yl) piperidine-1-carboxylate]: the values for the IC50 in assay [1], in assay [2] and in assay [3] were over 50 µM, 1.4 µM and 0.287 µM, respectively.
Taken in the same sequence, the figures for `Cc1cc(-c2[nH]c3ccc(C4CCN(C(=O)C5CCN(C(C)C)CC5)CC4)cc3c2C(C)C)ccn1` [Example 563, (4-(3-isopropyl-2-(2-methylpyridin-4-yl)-1H-indol-5-yl)piperidin-1-yl)(1-isopropylpiperidin-4-yl)methanone] were 1.15 µM, 0.0189 µM and 0.0165 µM.
Taken in the same sequence, the figures for `Cc1cc(-c2[nH]c3ccc(C4CCN(C(=O)[C@@H](N)CCCNC(N)=O)CC4)cc3c2C(C)C)ccn1` [Example 564, (S)-1-(4-amino-5-(4-(3-isopropyl-2-(2-methylpyridin-4-yl)-1H-indol-5-yl)piperidin-1-yl)-5-oxopentyl)urea] were 6.56 µM, 0.0801 µM and 0.202 µM.
Taken in the same sequence, the figures for `Cc1cc(-c2[nH]c3ccc(C4CCN(C(=O)C5CC(=O)N(C)C5)CC4)cc3c2C(C)C)ccn1` (stereo not drawn) [Example 566, 4-(4-(3-isopropyl-2-(2-methylpyridin-4-yl)-1H-indol-5-yl)piperidine-1-carbonyl)-1-methylpyrrolidin-2-one] were over 50 µM, 0.118 µM and 0.0788 µM.
Regarding `Cc1cc(-c2[nH]c3ccc(C4CCN(C(=O)C5CCN(Cc6ccccc6)CC5)CC4)cc3c2C(C)C)ccn1` [Example 567, (1-benzylpiperidin-4-yl)(4-(3-isopropyl-2-(2-methylpyridin-4-yl)-1H-indol-5-yl)piperidin-1-yl)methanone], the IC50 in assay [1] was found to be 0.876 µM; in assay [2], 0.0229 µM; in assay [3] it was 0.0267 µM.
Taken in the same sequence, the figures for `Cc1cc(-c2[nH]c3ccc(C4CCN(C(=O)CCC5CCNCC5)CC4)cc3c2C(C)C)ccn1` [Example 568, 1-(4-(3-isopropyl-2-(2-methylpyridin-4-yl)-1H-indol-5-yl)piperidin-1-yl)-3-(piperidin-4-yl)propan-1-one] were 0.572 µM, 0.0136 µM and 0.0119 µM.
